Where two headings read alike, the source gives them in different places.
What was measured:
[1] = test system: rat; assay: Carrageenin Pleurisy Assay (CPA), 3 hour exudate volume; format: in vivo; settings: for ED50: po, read-out: ED50, 3 hr. Vol
[2] = test system: rat; assay: Acetic Acid Writhing Test (AAWT), rat; format: in vivo; settings: po
Description: (§1) Using the procedure described by Koster et al. in Fed. […] 26, Anti-inflammatory Drugs, Ed.

[3] = test system: rat; assay: Yeast-Induced Hyperthermia Assay; format: in vivo; settings: for antipyretic and hypothermic activity: rat; for ED50: po
Description: The Yeast-Induced Hyperthermia Assay was used according to the procedure described by Khalili-Varasteh et al. in Arch. Int. Pharmacodyn.

[4] = test system: rat; assay: Carrageenin Pleurisy Assay (CPA), mobilized neutrophils at 3 hours; format: in vivo; settings: Neutrophil, po, read-out: ED50, 3 hr. Cells
Method: Following the procedure described by Vinegar et al. in Proc Soc Exp Biol Med 151, 556, (1976), the acute anti-inflammatory activity of the compound of formula (I) was compared with that of known anti-inflammatory drugs in the rat. Two assays were performed: in the first, the average 3 hour exudate volume for each drug-treated group was determined and the % inhibition relative to solvent-fed control animals calculated, the ED50 being the dose required to reduce the 3 hour exudate volume by 50%; in the second, the number of mobilized neutrophils was quantified and the % inhibition relative to solvent-fed control animals calculated, the ED50 being the dose required to reduce the number of neutrophils mobilized at 3 hours by 50%.

[5] = test system: rat; assay: Trypsin Hyperalgesic Assay (Modified THA); format: in vivo; settings: po
Method: (§2) The analgesic agents were administered 30 minutes after the administration of trypsin. In addition, a modification of Vinegar's published assay was carried out, comprising the administration of the analgesic agent preceding subplantar injection of trypsin (0.10 ml of 10% solution of trypsin in pyrogen-free water) by 15 minutes. In both THA's, pain scores were determined 60 minutes after trypsin injection.

[6] = Toxicity Test; settings: rat, in vivo, po
Method: Four non-fasted male rats of 160-250 gram body weight was used for each dose level. The compound to be tested was administered by the indicated route and the symptom onset time, the intensity of the effect and the duration during a 4 hour observation period were recorded. The LD50 estimation was based on a 7 day observation and was determined by the method of Miller and Tainter (Proc. Soc. Exp. Biol. Med. 57, 261 (1944)).

[7] = test system: rat; assay: Trypsin Hyperalgesic Assay (Published THA); format: in vivo; settings: for ED50: po, 0.5 h
Method: as §2

[8] = test system: rat; assay: Carrageenin Hindlimb Oedema Assay (CHOA); format: in vivo
[9] = acetic acid writhing assays (species not stated); format: in vivo; settings: in words
[10] = test system: rat; format: in vivo
[11] = test system: mouse; assay: Acetic Acid Writhing Test (AAWT), mouse; format: in vivo; settings: po
Description: as §1

[12] = test system: prostaglandin cyclooxygenase; assay: inhibition of prostaglandin cyclooxygenase; format: biochemical
[13] = solubility of the base; format: physicochemical
[14] = test system: rat; assay: anti-inflammatory action in the rat, in words (carrageenin pleurisy and carrageenin hindlimb oedema assays); format: in vivo
[15] = test system: lipoxygenase; assay: inhibition of lipoxygenase; format: biochemical
[16] = inhibition of analgesic activity by naloxone; format: in vivo
[17] = test system: morphine receptor; assay: binding to the morphine receptor
[18] = test system: brain; assay: analgesic activity when injected directly into the brain; format: in vivo
[19] = test system: peroxidase; assay: inhibition of peroxidase; format: biochemical
[20] = CPA, 3 hour exudate volume reduced by 50%, rat, p.o.
[21] = AAWT, rat, p.o., read-out: ED50
[22] = Rat Yeast Hyperthermia, p.o., read-out: ED50
[23] = CPA, neutrophils mobilized at 3 hours reduced by 50%, rat, p.o.
[24] = Modified THA, rat, p.o., agent 15 minutes before trypsin, read-out: ED50
[25] = Published THA, rat, p.o., agent 30 minutes after trypsin, read-out: ED50
[26] = male rats, 7 day observation, method of Miller and Tainter, read-out: LD50

SMILES: CC(=O)Nc1ccc(O)cc1 [Acetaminophen]
- duration of acute anti-inflammatory activity (time of drug administration prior to carrageenin in which inhibition of 3 hour pleural exudate volume declined to 40%) ([1]; CPA, 220 mg/kg (p.o.)): over 2 hours
- ED50 [1, 20]: 172 ± 22.4 mg/kg
- ED50 [2, 21]: 127 ± 16.6 mg/kg
- antipyretic and hypothermic activity ([3]; in words): antipyretic and hypothermic activity
- ED50 [3, 22]: 72 ± 8.6 mg/kg
- ED50 [4, 23]: 189 ± 48.6 mg/kg
- ED50 [5, 24]: 95 ± 17.2 mg/kg
- LD50 at 168 h [6]: 2000 mg/kg
- NOAEL at 4 h [6]: 250 mg/kg
- ED50 [7, 25]: 360 mg/kg

SMILES: CC(=O)Oc1ccccc1C(=O)O [Aspirin]
- ED50 ([8]; Rattus norvegicus): 145 ± 74 mg/kg
- ED50 ([1]; Rattus norvegicus, 3 h): 28 ± 3.2 mg/kg
- activity in the former (acetic acid writhing) assay [9]: inactive in the former assay
- gastric damage ([10]; single oral dose of 30 mg/kg): produces ulcers and haemorrhages
- ED50 ([2]; Rattus norvegicus): 21 ± 3.4 mg/kg
- ED50 [3]: 50 ± 8.1 mg/kg
- ED50 ([4]; Rattus norvegicus, 3 h): 75 ± 7.5 mg/kg
- ED50 ([11]; Mus musculus): 137 ± 16.9 mg/kg
- ED50 ([5]; Rattus norvegicus): > 180 mg/kg
- NOAEL at 4 h ([6]; male rats, 4 hour observation, read-out: No symptom dose): 10 mg/kg
- LD50 at 168 h [6, 26]: 1610 mg/kg
- ED50 ([7]; Rattus norvegicus): > 180 mg/kg

SMILES: O=C1CCCN1c1cccc2cccnc12 [Compound of Formula (I), 1-(8-quinolyl)-2-pyrrolidinone]
- inhibition of prostaglandin cyclooxygenase [12]: does not inhibit
- solubility ([13]; in 0.1 N HCl): > 50 mg/mL
- solubility ([13]; in water): > 50 mg/mL
- anti-inflammatory activity ([14]; rat): potent, long-lasting acute anti-inflammatory activity
- anti-inflammatory effect compared with acetaminophen ([14]; versus acetaminophen): more potent and to have a longer lasting anti-inflammatory effect
- ED50 ([8]; CHOA, rat, read-out: ED50): 54 ± 31.6 mg/kg
- inhibition of lipoxygenase [15]: does not inhibit
- duration of acute anti-inflammatory activity (time of drug administration prior to carrageenin in which inhibition of 3 hour pleural exudate volume declined to 40%) ([1]; CPA, 80 mg/kg (p.o.)): 9 h
- ED50 [1, 20]: 20 ± 4.3 mg/kg
- inhibition of analgesic activity by naloxone [16]: not inhibited by naloxone
- binding to the morphine receptor [17]: does not appreciably bind to the morphine receptor
- gastric damage ([10]; rat, 5 days of oral dosing at 40 mg/kg): does not produce gastric damage
- gastric damage ([10]; rat, single oral dose of 200 mg/kg): does not produce gastric damage
- ED50 [2, 21]: 22 ± 2.1 mg/kg
- analgesic activity on injection into the brain [18]: inactive when injected directly into the brain
- effect on body temperature of rats with a normal temperature ([3]; in words, higher dose levels): lowers the body temperature of rats
- antipyretic and hypothermic activity ([3]; in words): antipyretic and hypothermic activity
- ED50 [3, 22]: 22 ± 3.9 mg/kg
- ED50 [4, 23]: 37 ± 10.4 mg/kg
- inhibition of peroxidase [19]: does not inhibit
- ED50 ([11]; AAWT, mouse, p.o., read-out: ED50): 99 ± 9.8 mg/kg
- ED50 [5, 24]: 13 ± 1.8 mg/kg
- NOAEL at 4 h [6]: 250 mg/kg
- LD50 at 168 h [6, 26]: 1650 mg/kg
- ED50 [7, 25]: 37 ± 7.8 mg/kg
- duration of analgesic activity (time of drug administration prior to trypsin in which inhibition of hyperalgesia declined to 40%) ([7]; published THA, 75 mg/kg (p.o.)): 10.8 h
